According to patent US20100240074A1 (priority 2007, published 2010):

Legend:
Assay type in all cases: cell-based, Saccharomyces cerevisiae
[1] = tested on: parent strain (WT:BY4742); assay: Evaluation of sensitivity to lovastatin (area score, ARS), parent strain; conditions: lovastatin concentration 100 μM, FIG. 4
Experimental: (§1) A lovastatin solution was added to a 96-well plate such that the concentration of lovastatin (Sigma-Aldrich, #M2147) was within the range of from 0.39 μM to 100 μM. A parent strain (WT:BY4742, Open Biosystems, #YSC1049) a partner strain for barrier-free YKO (BF:KE458), and a partner strain for super barrier-free YKO (SBF:KE513), which had been subjected to static culture at room temperature for 2 days, were added to the plate such that the final cell number was at a 2000-fold dilution, and then subjected to static culture at 30° C.
(§2) Thereafter, light absorbance thereof at 620 nm was measured over time using a plate reader (SUNRISE, manufactured by Tecan) for 48 hours. Calculation of the cell proliferation inhibiting activity was carried out using the area score method (ARS) described in Japanese Patent Application Laid-Open No. 2006-141298. In ARS, a larger value indicates a greater cell proliferation inhibiting activity.

[2] = tested on: partner strain for barrier-free YKO (BF:KE458); assay: Evaluation of sensitivity to lovastatin (area score, ARS), barrier-free partner strain
Experimental: as §1, §2

[3] = tested on: partner strain for super barrier-free YKO (SBF:KE513); assay: Evaluation of sensitivity to lovastatin (area score, ARS), super barrier-free partner strain
Experimental: as §1, §2

[4] = tested on: super barrier-free YKO (SBF-YKO) knockout strains; assay: Identification of target molecule using super barrier-free YKO (sensitivity ranking by area score); conditions: lovastatin 3.125 μM
Experimental: Identification of a target molecule of lovastatin was conducted using the super barrier-free YKO (SBF-YKO) composed of 4,044 strains prepared as above. The SBF-YKO strains were inoculated into twelve 384-well plates (1 strain/well) in an ordered manner, and subjected to 3 to 7 days of static culture to equalize the number of cells across all strains. The cells were diluted 196-fold, thereby obtaining a cell dilution.
On the other hand, 384-well plates in which 20 μl of YPAD medium containing 3.9 μM lovastatin was added to each well, and 384-well plates in which 20 μl of lovastatin-free YPAD medium was added to each well were prepared. 5 μl of the obtained cell dilution was added to each well. By this operation, the cells were diluted 1000-fold and the compound concentration was adjusted to 3.125 μM.
(§3) These cells were cultured at 25° C., and light absorbance thereof at 650 nm was measured over time using a plate reader (SPECTRAMAX340PC384, Molecular Devices) from about 22 hours to 48 hours after the beginning of the culture. The area scores (ARS) were calculated based on the obtained data, thereby ranking the sensitivity.
In the same manner as in Example 6, identification of a target molecule of rapamycin was conducted using super barrier-free YKO (SBF-YKO). Each of the SBF-YKO strains was subjected to 3 to 7 days of static culture to equalize the number of cells across all strains. […]

[5] = tested on: barrier-free YKO (BF-YKO) knockout strains; assay: Identification of target molecule using barrier-free YKO (sensitivity ranking by area score)
Experimental: Using the barrier-free YKO (BF-YKO) composed of 3,011 strains as prepared above, a target molecule of lovastatin was identified. The strains of BF-YKO were inoculated into twelve 384-well plates (1 strain/well) in an ordered manner. The static culture was performed for 3 to 7 days to equalize the number of cells across all strains. The cells were diluted 196-fold, thereby obtaining a cell dilution.
On the other hand, 384-well plates wherein 20 μl of YPAD medium containing 3.9 μM, 7.8 μM or 15.6 μM lovastatin was added to each well, and 384-well plates in which 20 μl of lovastatin-free YPAD medium was added to each well were prepared. 5 μl of the obtained cell dilution was added to each well. By this operation, the cells were diluted 1000-fold and the respective concentrations of the compound were adjusted to 3.125 μM, 6.25 μM and 12.5 μM.
as §3

[6] = tested on: commercially available YKO (Invitrogen, #95401.H2) knockout strains; assay: Identification of target molecule using commercially available YKO collection (sensitivity ranking by area score)
Experimental: Identification of a target molecule of lovastatin was conducted in the same manner as in Example 7, except that commercially available YKO (Invitrogen, #95401.H2) composed of 4,847 strains was used instead of BF-YKO.
Identification of a target molecule of rapamycin was conducted in the same manner as in Example 9, except that commercially available YKO (Invitrogen, #95401.H2) composed of 4,847 strains was used instead of SBF-YKO and that the compound concentrations were changed to 10 nM, 12.5 nM and 15 nM.

barrier-free yeast = assay: Cycloheximide sensitivity of barrier-free yeast; conditions: cycloheximide 50 ng/ml
[7] = tested on: MATa-type super barrier-free YKO strains; assay: Cycloheximide sensitivity of MATa-type super barrier-free YKO strains; conditions: cycloheximide 25 ng/ml; all strains
Experimental: Instead of picking up the entire grown colonies with the 96-pin replicator, the grown colonies were picked up one by one (1 colony/strain) with a toothpick to transfer it onto new MATa selection agar medium, and culture at 30° C. for 7 days. Grown cells were picked up with a disposable 96-pin replicator, suspended in 100 μl of MATa selection liquid medium, and cultured at 25° C. for 2 to 7 days. Subsequently, the grown cells were transferred to a 384-well plate using a dispenser robot SHOTMASTER 3000.

[8] = tested on: parent strain (WT:BY4741); assay: Evaluation of sensitivity to rapamycin (area score, ARS), parent strain; conditions: FIG. 5
Experimental: (§4) In the same manner as in Example 5, to confirm drug sensitivity of the barrier-free YKO (BF-YKO) and super barrier-free YKO (SBF-YKO), changes in sensitivity of the yeasts caused by the proliferation inhibiting effect of rapamycin were examined using a parent strain and a partner strain.
(§5) A rapamycin solution was added to a 96-well plate such that the concentration of rapamycin (Sigma-Aldrich, #R0395) was varied within the range of from 0.2 nM to 50 nM. A parent strain (WT:BY4741, Open Biosystems, #YSC1048), a barrier-free strain (BF:KE457), and a super barrier-free strain (SBF:KE477), which had been subjected to static culture at room temperature for 2 days, were added such that the final cell numbers was at a 1000-fold dilution, and then subjected to static culture at 30° C.
as §2

[9] = tested on: barrier-free strain (BF:KE457); assay: Evaluation of sensitivity to rapamycin (area score, ARS), barrier-free strain; conditions: FIG. 5
Experimental: as §4, §5, §2

[10] = tested on: super barrier-free strain (SBF:KE477); assay: Evaluation of sensitivity to rapamycin (area score, ARS), super barrier-free strain
Experimental: as §4, §5, §2

[11] = based on lovastatin concentrations at which an area score of about 10 was obtained

CC[C@H](C)C(=O)O[C@H]1C[C@@H](C)C=C2C=C[C@H](C)[C@H](CC[C@@H]3C[C@@H](O)CC(=O)O3)[C@H]21 [lovastatin]
cell proliferation inhibiting effect [1]: only a slight cell proliferation inhibiting effect | concentration at which maximum inhibiting activity was exhibited ([2]; FIG. 4): 50 µM | sensitization relative to the WT strain [2, 11]: 8 times | concentration at which maximum inhibiting activity was exhibited ([3]; FIG. 4): 25 µM | sensitization relative to the WT strain [3, 11]: 16 times | sensitivity of BTS1-knockout strain [4]: most sensitive knockout strain | sensitivity of HMG1 gene knockout strain [4]: high sensitivity | sensitivity of HMG1 gene knockout strain ([5]; lovastatin 6.25 μM): high sensitivity | sensitivity of HMG1 gene knockout strain ([5]; lovastatin 12.5 μM): high sensitivity | sensitivity of HMG1 gene knockout strain ([6]; lovastatin 3.125 μM): not found as a strain exhibiting sensitivity | sensitivity of BTS1-knockout strain ([6]; lovastatin 3.125 μM and 12.5 μM): not found as a strain exhibiting sensitivity | sensitivity of HMG1 gene knockout strain ([6]; lovastatin 12.5 μM): not found as a strain exhibiting sensitivity

C[C@@H]1C[C@@H]([C@H](O)CC2CC(=O)NC(=O)C2)C(=O)[C@@H](C)C1 [cycloheximide]
growth in the presence of cycloheximide (barrier-free yeast): cannot grow | growth in the presence of cycloheximide [7]: could not grow

CO[C@H]1C[C@@H]2CC[C@@H](C)[C@@](O)(O2)C(=O)C(=O)N2CCCC[C@H]2C(=O)O[C@H]([C@H](C)C[C@@H]2CC[C@@H](O)[C@H](OC)C2)CC(=O)[C@H](C)/C=C(\C)[C@@H](O)[C@@H](OC)C(=O)[C@H](C)C[C@H](C)/C=C/C=C/C=C/1C [rapamycin]
concentration at which maximum cell proliferation inhibiting effect was observed [8]: 50 nM | concentration at which maximum cell proliferation inhibiting effect was observed [9]: 50 nM | concentration at which maximum effect was exhibited ([10]; FIG. 5): 6.25 nM | sensitization relative to the WT strain ([10]; based on rapamycin concentrations at which an area score of about 10 was obtained): 8 times
